Literature values in paper PMC4138512 (Journal of computer-aided molecular design, 2014).

Tested on: BoNT/A

Row | SMILES | Inhibition in combination with 2,4-dichlorocinnamic hydroxamate | Type of inhibition of BoNT/A | Inhibition in combination with 2,4-dichlorocinnamic hydroxamate and chicoric acid
1 | O=C(/C=C/c1ccc(O)c(O)c1)O[C@H](C(=O)O)[C@H](OC(=O)/C=C/c1ccc(O)c(O)c1)C(=O)O [D-chicoric acid] | nonmutually exclusive inhibition | partial inhibition | –
2 | COC(=O)c1ccc(O)c2nc3c(C=O)c(O)cc(O)c3nc12 [lomofungin] | – | non-competitive | synergistic inhibition
